Assay results taken from US5780653A, “Nitrophenyl, 10-deacetylated substituted taxol derivatives as dual functional cytotoxic/radiosensitizers” (Vivorx Pharmaceuticals, Inc., priority 1995, dated 1998).

Key:
[1] = system: breast adenocarcinoma cell line MCF-7; test: In vitro cytotoxicity of paclitaxel derivatives (macroscopic colony formation); format: cell-based
Protocol: Taxol derivatives were assayed for their cytotoxic activities on tumor cell lines in vitro. The breast adenocarcinoma cell line MCF-7 was chosen as a model for the cytotoxicity assay. The cell line was maintained in RPMI 1640 medium supplemented with 10% fetal bovine serum. For the cell survival experiments, a number of 100 mm petri dishes were plated with 5×10^5 cells. Exponentially growing cells were exposed to paclitaxel or paclitaxel derivatives at various concentrations 24 hours later. After exposure to paclitaxel and derivatives for various times, the cells were rinsed, trypsinized and washed with medium. The cells were resuspended as single cell suspensions, counted with a particle counter, plated and incubated for macroscopic colony formation. Following a one to two week incubation, the colonies were fixed with methanol/acetic acid, stained with crystal violet and colonies with more than 50 cells counted. […] The survival was reported as the fraction of cells surviving after exposure to paclitaxel or derivatives thereof. As an example, the cytotoxicity of the derivative synthesized in Example 9, i.e., 3'-Desphenyl-3'-(4-nitrophenyl)-N-debenzoyl-N-(t-butoxycarbonyl)-10-deacetyltaxol, is reported herein.

tubulin = test: In vitro microtubule assembly of paclitaxel derivatives (turbidity, absorbance at 350 nm); format: biochemical; settings: for absorbance (at 350 nm), tubulin polymerization at 10° C. / absorbance (at 350 nm), tubulin polymerization at 37° C.: 10 μM tubulin, 10 μM taxol or derivative; for absorbance (at 350 nm), tubulin polymerization at 10° C.: pH 6.8, 10° C.; for absorbance (at 350 nm), tubulin polymerization at 37° C.: pH 6.8, 37° C.
From the text: Paclitaxel inhibits cell replication in the mitotic phase of the cell cycle by promoting polymerization and stabilization of microtubules. Microtubules are polymers of tubulin in dynamic equilibrium with tubulin heterodimers that are composed of alpha and beta protein subunits. Unlike other antimicrotubule agents, such as the vinca alkaloids (that induce microtubule disassembly), paclitaxel shifts the equilibrium towards microtubule assembly. Paclitaxel-induced microtubules are excessively stable, thereby inhibiting the dynamic reorganization of the microtubule network. The cytotoxic properties of paclitaxel are caused by its unique disruptive effects on microtubules. Thus the activity of taxol or taxol analogs and derivatives may be assessed in vitro by their ability to polymerize tubulin into microtubules (Chaudhary et al. Journal of the American Chemical Society 116:4097-4098 (1994). The polymerization of tubulin is accompanied by a concomitant increase in solution turbidity associated with the formation of microtubules. This increase in turbidity can be assayed spectrophotometrically.
Thus, 10 μM tubulin was dissolved in 0.1M MES buffer containing 100 μM GTP and 0.5 mM MgCl2 with a final pH of 6.8. 10 μM tubulin was added to the buffer. 10 μM of taxol (or taxol derivatives) was added to the buffer at 0° C. and the absorbance of the sample measured at 350 nm as the sample temperature increased rapidly to 37° C. with the aid of a circulating water bath connected to the sample chamber of the spectrophotometer. The maximum absorbance of the sample was measured and compared to that of taxol as a control to determine any change in activity of the paclitaxel derivatives.

microtubule = settings: compared with paclitaxel; cited from earlier work
[2] = compared with paclitaxel; cited from earlier work
central nervous system = settings: large-scale clinical trials; cited from earlier work
cultured mammalian cells = settings: cited from earlier work
rodent tumors = settings: some rodent tumors; cited from earlier work
[3] = system: grade III human astrocytoma cell line, G18; settings: paclitaxel pretreatment and gamma irradiation; cited from earlier work
[4] = system: HL-60 human leukemic cell line; settings: cited from earlier work
[5] = system: three human ovarian cancer cell lines; settings: cited from earlier work
[6] = system: cervical carcinoma cell lines; settings: cited from earlier work
[7] = system: human breast and lung cell lines; settings: cited from earlier work
[8] = intravenous infusion every 2-3 weeks, patients; cited from earlier work
[9] = cited from earlier work

Molecule: 3'-Desphenyl-3'-(4-nitrophenyl)-N-debenzoyl-N-(isopropoxycarbonyl)-10-deacetyltaxol [Example 9]
- surviving fraction of MCF-7 cells ([1]; 10 nM, 24 hours): 2×10^-3
- increase in cytotoxicity over unmodified taxol ([1]; MCF-7, 10 nM, 24 hours): 30 fold

Molecule: CC(=O)O[C@@]12CO[C@@H]1C[C@H](O)[C@@]1(C)C(=O)[C@H](O)C3=C(C)[C@@H](OC(=O)C(O)C(NC(=O)OC(C)(C)C)c4ccc([N+](=O)[O-])o4)C[C@@](O)([C@@H](OC(=O)c4ccccc4)[C@H]21)C3(C)C (some centres unmarked) [Example 6]
- absorbance (at 350 nm), tubulin polymerization at 10° C. (tubulin): 0.37
- absorbance (at 350 nm), tubulin polymerization at 37° C. (tubulin): 0.71
- tubulin polymerization activity relative to taxol (ratio of absorbances) (tubulin; 37° C.): 2.4 times that of taxol
- activity in tubulin assembly compared with unmodified taxol (tubulin; both at low temperature and at physiological temperatures): substantially more active in tubulin assembly than unmodified taxol

Molecule: CC(=O)O[C@@]12CO[C@@H]1C[C@H](O)[C@@]1(C)C(=O)[C@H](O)C3=C(C)[C@@H](OC(=O)[C@H](O)[C@@H](NC(=O)OC(C)(C)C)c4ccccc4)C[C@@](O)([C@@H](OC(=O)c4ccccc4)[C@H]21)C3(C)C [docetaxel]
- microtubule assembly activity (microtubule): more active than paclitaxel
- cytotoxicity [2]: more active than paclitaxel

Molecule: COCC(O)Cn1ccnc1[N+](=O)[O-] (centres unmarked) [misonidazole]
- toxicity to the central nervous system (central nervous system): toxic to the central nervous system
- hypoxic-cell sensitization, cultured mammalian cells (cultured mammalian cells): excellent hypoxic-cell sensitizer
- hypoxic-cell sensitization, rodent tumors (rodent tumors): excellent hypoxic-cell sensitizer

Molecule: CC(=O)O[C@H]1C(=O)[C@@]2(C)[C@H]([C@H](OC(=O)c3ccccc3)[C@]3(O)C[C@H](OC(=O)[C@H](O)[C@@H](NC(=O)c4ccccc4)c4ccccc4)C(C)=C1C3(C)C)[C@]1(OC(C)=O)CO[C@@H]1C[C@@H]2O [paclitaxel]
- absorbance (at 350 nm), tubulin polymerization at 10° C. (tubulin): 0.0
- absorbance (at 350 nm), tubulin polymerization at 37° C. (tubulin): 0.295
- polymerization of tubulin at 10° C. (tubulin; taxol (10 μM), 10° C.): would not polymerize tubulin
- polymerization of tubulin at 37° C. (tubulin; taxol (10 μM), 37° C.): would promote polymerization
- viability at 0.01 µM ([1]; Homo sapiens, MCF7, 24 h, read-out: surviving fraction of MCF-7 cells): 6%
- enhancement of radiosensitivity, G18 [3]: significant enhancement of radiosensitivity
- radiosensitization, HL-60 [4]: radiosensitization
- radiosensitization, human ovarian cancer cell lines [5]: radiosensitization
- enhancement in radiosensitization, cervical carcinoma [6]: have not observed an enhancement in radiosensitization
- enhancement in radiosensitization, human breast and lung [7]: have not observed an enhancement in radiosensitization
- serum half-life [8]: up to 19 h
- in vivo radiopotentiation [9]: potent in vivo radiopotentiating agent
